Experimental data as given in patent US20050256134A1, “Use of creatine analogues and creatine kinase modulators for the prevention and treatment of glucose metabolic disorders” (AVICENA GROUP, INC., priority 1995, published 2005).
Read-outs that look alike come from different tables or passages of the source.

What was measured:
[1] = system: normal animals and a model for non-insulin dependent diabetes mellitus; conditions: cited from earlier work
rats = conditions: intravenous; cited from earlier work
[2] = system: female Fisher 344 rats bearing rat mammary adenocarcinoma 13762; assay: Effect of creatine compounds on glucose levels in rats bearing tumors (i.v., days 4-8 and 14-18); format: in vivo; conditions: for Glucose Levels: i.v. days 4-8 and 14-18
Protocol: Two creatine compounds, creatine phosphate and cyclocreatine, were injected intravenously into tumor bearing rats, and the level of glucose in the rats was monitored. Beta guanidino propionic acid, also was administered. […] There was no specific reason for using tumor bearing rats, except convenience because the antitumor activity of these compounds also was being studied. The presence of the tumors should not have any effect on the ability of these compounds to regulate glucose levels. The rats carrying the tumors were described by us previously (see, […] et al., Cancer Chemother. Pharmacol, 35: 411-416, 1995). The schedule and dose selected in these experiments was based on prior experience working with this class of compounds as anticancer or antiviral chemotherapeutic agents. The rat mammary adenocarcinoma 13762 was implanted in the female Fisher 344 rats on day zero. The creatine compounds were administered intravenously on days 4-8 and days 14-18. The amounts used were 1 gm/kg of cyclocreatine, 0.93 gm/kg for beta guanidino propionic acid, and 2.32 gm/kg for creatine phosphate. […] Plasma glucose levels were measured at around 11 a.m., by taking a drop of blood from the animals and testing glucose levels using a commercial kit ([…] bG, Boehringer Mannheim). For animals that were treated with drugs, the treatment was around 9 a.m., and bleeding was also at around 11 a.m. To examine more closely what occurred in the above two experiments, the average readings of glucose levels from experiments one and two were taken in the following time intervals post drug treatment: Days 2-3, Days 4-8, Days 8-12, Days 14-18, Day 15 and Days 19-22.

[3] = in vivo; cited from earlier work

Molecule	Glucose Levels ([1]; large amounts for several weeks)	Glucose Levels ([1]; model for non-insulin dependent diabetes mellitus)	Glucose Levels ([1]; normal animals)	Glucose Levels (rats)	insulin release (rats)	Glucose Levels ([2]; Example 1)	Glucose Levels ([2]; Example 2 (repeat))	effects on glucose level ([2]; average of experiments one and two) [%]	hypoglycemic effect [3]	undesirable side effects [3]
N=C(N)NCCC(=O)O [beta guanidino propionic acid]	not to affect glucose levels	had an effect on glucose levels	not to affect glucose levels	did not affect glucose levels	stimulated insulin release	Minimal changes in glucose levels	minimal effect	< 15	–	–
N=C(N)NCCC[C@H](N)C(=O)O [Arginine]	–	–	–	did not affect glucose levels	stimulated insulin release	–	–	–	–	–
Augmentin	–	–	–	–	–	–	–	–	produced hypoglycemia	hypertension and circulatory collapse
